ChEMBL document CHEMBL1153683, “Triply-convergent synthesis of two sets of homochiral cyclopent[a]indene carbacyclin analogs” (Bioorg Med Chem Lett, 1991)

Species: Homo sapiens
Test: Compound was evaluated for the inhibition of collagen-induced platelet aggregation
Assay type: functional

First: O=C(O)CCc1ccc2c(c1)[C@H]1C[C@@H](O)[C@H](CC[C@@H](O)C3CCCCC3)[C@H]1C2
Second: O=C(O)Cc1ccc2c(c1)[C@H]1C[C@@H](O)[C@H](CC[C@@H](O)C3CCCCC3)[C@H]1C2
The IC50 of the first is 6.7-fold higher: 2200 nM for the first, 330 nM for the second. The second is the more potent here.

First: O=C(O)Cc1ccc2c(c1)[C@H]1C[C@@H](O)[C@H](C#C[C@@H](O)C3CCCCC3)[C@H]1C2
Second: O=C(O)CCc1ccc2c(c1)[C@H]1C[C@@H](O)[C@H](C#C[C@@H](O)C3CCCCC3)[C@H]1C2
The IC50 of the first is 1.8-fold lower: 180 nM for the first, 330 nM for the second.

`O=C(O)Cc1ccc2c(c1)[C@H]1C[C@@H](O)[C@H](/C=C\[C@@H](O)C3CCCCC3)[C@H]1C2` and `O=C(O)CCc1ccc2c(c1)[C@H]1C[C@@H](O)[C@H](/C=C\[C@@H](O)C3CCCCC3)[C@H]1C2` cannot be ordered by IC50: over 100000 nM for the first, over 100000 nM for the second.
